The half-life is the time needed for the level to fall by half in the phase considered. The term IC50 denotes the concentration that inhibits the measured activity by half.

The source of these data is patent US11926596B2, “Inhibitors of Rho associated coiled-coil containing protein kinase” (KADMON CORPORATION, LLC, priority 2017, dated 2024).

For series [1] the following is noted: cited from earlier work.
Series [2] deals with sAPPP. The following applies: direct i.p. injection into hippocampus, rodent model of AD; cited from earlier work.
Series [3] addresses T1, recombinant ROCK2 (amino acids 1-552) (Homo sapiens, UniProt O75116).
T1 construct: ROCK2 (amino acids 1-552) proteins were purchased from ThermoFisher Scientific; purchased ThermoFisher Scientific
Description: Z'-lyte kinase assay, ROCK2. Format: biochemical. The following applies: for inhibition at 0.5 µM / inhibition at 1 µM / inhibition at 3 µM: read-out: ROCK2 % inh. As to the method:
(§1) Determination of compounds ROCK inhibitory activity in vitro (Z'lyte assay): recombinant ROCK1 (amino acids 1-535) and ROCK2 (amino acids 1-552) proteins were purchased from ThermoFisher Scientific. Compounds activities were measured by Z′-lyte kinase kit (ThermoFisher Scientific) and IC50s were calculated.
(§2) Table 2, below, provides in vitro and cellular inhibition of ROCKs by compounds of the invention. Compounds activities were measured by Z′-lyte kinase kit (ThermoFisher Scientific). […] IC50s were calculated using the GraphPad Prism software with kinase activities data that were collected from points 9 serial dilution of compounds treatment. The ROCK inhibition in A7R5 cells and NIH3T3 (Acta2-Luc) cells was performed as described above.

Series [4] has as its target T2, recombinant ROCK1 (amino acids 1-535) (Homo sapiens, UniProt Q13464).
T2 construct: recombinant ROCK1 (amino acids 1-535) and ROCK2; purchased ThermoFisher Scientific
Briefly: Z'-lyte kinase assay, ROCK1. It counts as biochemical. On the procedure:
as §1, §2

Series [5] deals with phospho-myosin light chains (ppMlc, Thr18/Ser19) in A7R5 cells. Briefly: A7R5 in-cell ELISA, phospho-myosin light chain. As to conditions: for IC50: Rattus norvegicus, A7R5 cells. Format: cell-based, rat. On the procedure: Determination of compounds ROCK inhibitory activity in A7R5 cells: rat aortic smooth muscle cell line A7R5 cells were maintained and treated in DMEM medium with 10% of fetal bovine serum. Cells were seeded with density of 5,000 cells/well in 96-well plates for 24 hours and subsequently treated 90 min with testing compounds. Cells were then fixed and processed according to the In-Cell ELISA Colorimetric Detection Kit manual (Thermo Scientific). Cellular phospho-myosin light chains (ppMlc, Thr18/Ser19) levels were determined after treatments of DMSO control or test compounds using the In-Cell ELISA kit. The percent inhibition rate was calculated by applying the data obtained with 1 μM (or 10 μM) compound treatment to the formula, [1-(compound/DMSO)]×100%. ppMlc data obtained with 9 points 2-fold serial dilution of compounds were applied to the nonlinear regression curve fit function of the GraphPad Prism software to calculate the In cell IC50s.
A7R5 cells were treated with 9 points 2 fold serial dilution of compounds and ppMlc (T18/S19) levels were determined in order to calculate cellular IC50s of the compounds.
Two steps of measurements were adopted for pMLC/A7R5 IC50. Percent inhibition rates were calculated with a single dose (1 μM or 10 μM) compounds treatment to screen for active compounds and then cellular IC50s were measured only in compounds that have over 50% of inhibition rates.
For orientation: An ELISA detects its analyte on a solid surface through an enzyme-linked reagent.

The subject of series [6] is luciferase reporter driven by the human ACTA2 gene promoter in NIH3T3 cells. Briefly: NIH3T3 cells Acta2-promoter driven-luciferase assay. Format: cell-based. As to conditions: plus TGF 1, 24 hr, read-out: NIH3T3, Acta2-luc, IC50. As to the method:
NIH3T3 cells Acta2-promoter driven-luciferase assay: A NIH3T3 cell line stably expressing a luciferase reporter driven by the human ACTA2 gene promoter (−1000-1 bp) was established (NIH3T3-Acta2-luciferase). The cells were plated to confluence and treated with the test compounds plus TGF 1 for 24 hr. Cells were then lysed and luciferase activity was measured using the LightSwitch luciferase kit from Active Motif.

Series [7] in a line: Brain and plasma concentrations in mouse by HPLC/MS/MS after 2.5 mg/kg IV. Format: in vivo. As to conditions: for concentration at 0.25 h / concentration at 2 h: iv; for Kp at 0.25 h / Kp at 2 h: brain/plasma; for Kp at 0.25 h: read-out: Mean Brain/Plasma Ratio at 0.25 hr; for Kp at 2 h: read-out: Mean Brain/Plasma Ratio at 2 hr. As to the method:
Brain and plasma concentrations of select ROCK inhibitors were also evaluated in mouse by HPLC/MS/MS at 15 min and 2 hrs following 2.5 mg/kg IV drug administration.

[8] abbreviates: 1.5 h, 90 min, read-out: pMLC IC50 A7R5.
[9] abbreviates: ppMlc (T18/S19), 9 points 2 fold serial dilution, read-out: ppMIc IC50.
Setting [10] is: brain, 2.5 mg/kg, read-out: Mean Conc. at 0.25 hr, Brain.
The mark [11] stands for this setting: plasma, 2.5 mg/kg, read-out: Mean Conc. at 0.25 hr, Plasma.
[12] abbreviates: plasma, 2.5 mg/kg, read-out: Mean Conc. at 2 hr, Plasma.

Like-named read-outs stand apart in the source and are kept apart here. Some results are limits rather than exact numbers.

T2 sequence (Q13464 1-535): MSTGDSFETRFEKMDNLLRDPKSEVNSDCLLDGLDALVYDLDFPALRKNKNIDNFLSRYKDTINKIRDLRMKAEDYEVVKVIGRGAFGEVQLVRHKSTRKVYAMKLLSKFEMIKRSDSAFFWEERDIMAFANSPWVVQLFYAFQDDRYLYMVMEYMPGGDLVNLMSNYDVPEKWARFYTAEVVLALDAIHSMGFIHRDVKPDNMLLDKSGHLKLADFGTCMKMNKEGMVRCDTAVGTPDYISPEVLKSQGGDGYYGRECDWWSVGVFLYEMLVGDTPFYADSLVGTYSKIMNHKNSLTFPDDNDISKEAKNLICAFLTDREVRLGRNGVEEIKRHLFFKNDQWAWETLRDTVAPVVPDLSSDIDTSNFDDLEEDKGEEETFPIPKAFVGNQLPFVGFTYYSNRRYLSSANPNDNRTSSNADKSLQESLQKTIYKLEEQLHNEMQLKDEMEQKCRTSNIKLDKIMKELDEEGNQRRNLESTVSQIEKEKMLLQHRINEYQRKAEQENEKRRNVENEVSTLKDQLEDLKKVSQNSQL
T1 sequence (O75116 1-552): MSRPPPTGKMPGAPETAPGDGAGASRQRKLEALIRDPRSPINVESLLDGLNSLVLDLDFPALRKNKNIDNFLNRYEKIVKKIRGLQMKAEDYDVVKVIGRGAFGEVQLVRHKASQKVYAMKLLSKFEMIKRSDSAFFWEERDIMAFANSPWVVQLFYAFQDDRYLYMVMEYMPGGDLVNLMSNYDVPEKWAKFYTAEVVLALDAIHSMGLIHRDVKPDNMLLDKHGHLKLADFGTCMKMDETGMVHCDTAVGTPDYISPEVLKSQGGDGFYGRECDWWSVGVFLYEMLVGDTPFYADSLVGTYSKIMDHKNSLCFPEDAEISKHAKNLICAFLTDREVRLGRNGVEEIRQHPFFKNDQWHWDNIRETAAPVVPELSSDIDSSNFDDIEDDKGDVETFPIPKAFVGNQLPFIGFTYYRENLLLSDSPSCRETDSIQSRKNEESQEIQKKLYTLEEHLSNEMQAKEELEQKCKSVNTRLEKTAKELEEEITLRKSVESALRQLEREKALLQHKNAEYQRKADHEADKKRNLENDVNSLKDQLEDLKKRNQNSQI

Turning to `CN(C)CCOc1cc(-c2cn[nH]c2)ccc1NC(=O)C1COc2ccccc2O1` (stereo not shown) [SR3677], the brain penetration entry in series [1] (in vivo) is listed as “lack of brain penetration”. In addition, in series [1] (oral PK properties), the half-life is below 1 h. For the same compound, in series [1] (oral), the “F (oral)” value is on record as 5%. Besides, the “effect on sAPPP” value in series [2] is given as “lowering sAPPP”.

Take `CNC(C(=O)Nc1ccc2[nH]ncc2c1)c1cccc(Cl)c1` (stereo not shown) [Example 42, 2-(3-chlorophenyl)-N-(1H-indazol-5-yl)-2-(methylamino)acetamide]: the IC50 in series [3] was determined as 16 nM; in series [4], 8.8 nM; in series [5] (setting [8]), 454 nM; in series [6], 882 nM.

With `CNC(C(=O)Nc1ccc2[nH]ncc2c1)c1ccc(Oc2cccc(OC)c2)cc1` (stereo not shown) [Example 15, N-(1H-indazol-5-yl)-2-(4-(3-methoxyphenoxy)phenyl)-2-(methylamino)acetamide], the concentration for half-maximal inhibition (IC50) in series [3] is 10 nM; in series [4] it was 13 nM; in series [5] (setting [8]), 124 nM; in series [5] (setting [9]), 124 nM; in series [6], 219 nM. The values for the concentration at 0.25 h in series [7] (setting [10]) and in series [7] (setting [11]) were 853 ng/g and 394 ng/mL, respectively. Besides, the concentration at 2 h was 288 ng/g in series [7] (brain, 2.5 mg/kg, read-out: Mean Conc. at 2 hr, Brain) and 41.4 ng/mL in series [7] (setting [12]). Besides, the Kp at 0.25 h in series [7] was determined as 2.17. Moreover, the Kp at 2 h in series [7] worked out at 6.99.

With `CCNC(C(=O)Nc1ccc2[nH]ncc2c1)c1cccc(Cl)c1` (stereo not shown) [Example 58, 2-(3-chlorophenyl)-2-(ethylamino)-N-(1H-indazol-5-yl)acetamide], the IC50 in series [3] came out at 64 nM; in series [5] (setting [8]), 722 nM; in series [6] it was 1090 nM. Also, the inhibition at 0.5 µM amounted to 61% in series [3] and 85% in series [4] (@ 0.5 μM, read-out: ROCK1 % inh).

Consider `CNC(C(=O)Nc1ccc2[nH]ncc2c1)c1ccc(Cl)cc1` (stereo not shown) [Example 16, 2-(4-chlorophenyl)-N-(1H-indazol-5-yl)-2-(methylamino)acetamide], for which the IC50 in series [3] amounted to 15 nM; in series [4], 3.8 nM; in series [5] (setting [8]) it was 252 nM; in series [6], 915 nM. Moreover, the inhibition at 1 µM in series [3] worked out at 99%. In addition, the inhibition at 3 µM in series [4] (read-out: ROCK1 % inh) came out at 93.2%. Besides, the “cellular ROCK inhibition compared with Comparative Example 2” value in series [5] (phosphorylation of the ROCK target pMLC in A7R5 cells) is “enhanced”.

For the compound `CCNC(C(=O)Nc1ccc2[nH]ncc2c1)c1ccc(OC)cc1` (stereo not shown) [Example 26, 2-(ethylamino)-N-(1H-indazol-5-yl)-2-(4-methoxyphenyl)acetamide], the concentration for half-maximal inhibition (IC50) in series [3] was determined as 12 nM; in series [4], 24 nM; in series [5] (setting [8]), 261 nM; in series [6], 845 nM. Also, the inhibition at 3 µM in series [3] turned out to be 98.8%; in series [4] (read-out: ROCK1 % inh), 99%.

Regarding `CNC(C(=O)Nc1ccc2[nH]ncc2c1)c1cccc(OC)c1` (stereo not shown) [Example 41, N-(1H-indazol-5-yl)-2-(3-methoxyphenyl)-2-(methylamino)acetamide], the IC50 amounted to 17 nM in series [3], 3.2 nM in series [4], 304 nM in series [5] (setting [8]) and 539 nM in series [6]. The inhibition at 1 µM in series [3] is 99.5%. Moreover, in series [7] (2.5 mg/kg), the “Mean Conc. at 0.25 hr, Brain” value is 541 ng/g. In addition, the values for the concentration at 0.25 h in series [7] (setting [10]) and in series [7] (setting [11]) were 566 ng/g and 427 ng/mL, respectively. In series [7], the Kp at 0.25 h was 1.33. Moreover, the Kp at 2 h in series [7] was 8.41. Further, the concentration at 2 h in series [7] (setting [12]) was determined as 2.14 ng/mL.

Regarding `CCNC(C(=O)Nc1ccc2[nH]ncc2c1)c1ccc(C)cc1` (stereo not shown) [Example 30, 2-(ethylamino)-N-(1H-indazol-5-yl)-2-(p-tolyl)acetamide], the 50% inhibitory concentration (IC50) in series [3] worked out at 13 nM; in series [4], 16 nM; in series [5] (setting [8]) it was 502 nM; in series [6], 960 nM. The inhibition at 3 µM in series [3] worked out at 98.8%; in series [4] (read-out: ROCK1 % inh), 99%.

In the case of `CNC(C(=O)Nc1ccc2[nH]ncc2c1)c1ccc(OC)cc1` (stereo not shown) [Example 24, N-(1H-indazol-5-yl)-2-(4-methoxyphenyl)-2-(methylamino)acetamide], the IC50 in series [3] was determined as 3.6 nM; in series [4], 3.89 nM; in series [5] (setting [8]) it was 224 nM; in series [6], 321 nM. Moreover, the inhibition at 3 µM in series [3] was 98.8%; in series [4] (read-out: ROCK1 % inh) it was 99%.

Take `CNC(C(=O)Nc1ccc2[nH]ncc2c1)c1ccccc1Cl` (stereo not shown) [Example 47, 2-(2-chlorophenyl)-N-(1H-indazol-5-yl)-2-(methylamino)acetamide]: the IC50 came to 135 nM in series [3]; 8.3 nM in series [4]; 461 nM in series [5] (setting [8]); 461 nM in series [5] (setting [9]); 659 nM in series [6].

Regarding `CNC(C(=O)Nc1ccc2[nH]ncc2c1)c1ccc(Oc2ccc(OC)cc2)cc1` (stereo not shown) [Example 14, N-(1H-indazol-5-yl)-2-(4-(4-methoxyphenoxy)phenyl)-2-(methylamino)acetamide], in series [3], the inhibition at 0.5 µM is 100%. Further, the half-inhibitory concentration (IC50) in series [4] stood at 32.6 nM; in series [5] (setting [8]), 207 nM; in series [5] (setting [9]) it was 207 nM; in series [6], 678 nM.
